# Source: US20100151572A1, “ANTI-TUMORAL COMPOSITIONS METHODS” (priority 2005, published 2010)
# Key:
# E. coli PNP = E. coli PNP (Escherichia coli, UniProt P0ABP8); conditions: abrogates E. coli PNP activity; cited from earlier work
# human enzyme (PNP) = target: T1, human enzyme (PNP) (Homo sapiens, UniProt P00491); conditions: cited from earlier work
# T1 sequence (P00491 1-289): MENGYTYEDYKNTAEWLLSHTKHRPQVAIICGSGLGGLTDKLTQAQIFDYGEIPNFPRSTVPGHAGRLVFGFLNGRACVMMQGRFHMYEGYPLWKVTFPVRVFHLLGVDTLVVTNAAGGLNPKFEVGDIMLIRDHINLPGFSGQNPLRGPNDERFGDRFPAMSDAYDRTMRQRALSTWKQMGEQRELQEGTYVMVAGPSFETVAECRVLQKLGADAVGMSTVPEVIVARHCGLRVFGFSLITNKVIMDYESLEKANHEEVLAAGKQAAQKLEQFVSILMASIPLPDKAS
# HeLa cells = experiment: Ad-PNP mediated cell killing in vitro, crystal violet staining; type: cell-based, human; conditions: MeP-dR 40 micrograms/milliliter, adenoviral MOI 0.1-100, stained 6 days post infection
# Protocol: Confluent HeLa cells are infected with Ad-PNP at various MOIs. MeP-dR is added at 40 micrograms/milliliter in one set of cells at 24 hours post infection. At 6 days post infection, all cultures are stained with Crystal Violet to visualize living cells.
# FIG. 17 depicts results using an Ela deleted adenoviral vector encoding E. coli PNP as described herein.
# [1] = cited from earlier work
# [2] = tested on: D54 glioma tumors (MuLv-PNP transduced); experiment: D54 tumors expressing E. coli PNP from MuLV, prodrug treatment in vivo
# Protocol: For example, in one in vivo tumor model, tumors are established in animals by subcutaneous implantation of about 10^7 cells into the axillary region of 6-10 mice. Athymic (or scid) mice are used for models of certain human tumors including cells such as D54, HCT-15, and SR475 head/neck. Syngeneic models are also used. For instance, mouse tumors are established using Colon 26 and G26 glioma cells.
# The resulting solid tumors are measured twice weekly in two dimensions and the mass calculated using the formula for a prolate ellipsoid, [length (mm)×width^2 (mm)]/2=mg, assuming unit density. The data will permit the determination of a tumor volume doubling time, % “no takes”, and % spontaneous regressions.
# PNP expression in MuLv was driven by an SV40 promoter. Mice are given non-absorbable antibiotics in their drinking water prior to treatment with high doses of MeP-dR (e.g. 168 mg/kg/d×3d) to minimize intestinal cleavage of the compound (Bharara, S., et al., 2005, Human Gene Therapy 16:339-347.). Antibiotics are not co:administered for lower doses of MeP-dR, or with less avid substrates such as fludarabine.
# [3] = tested on: D54 glioma tumors (lentivirus PNP); experiment: D54 tumors expressing E. coli PNP from lentivirus, prodrug treatment in vivo; design: species or system human
# Excerpt: Syngeneic models are also used.
# D54 glioma tumors are established from a stable cell line expressing E. coli PNP by a strong, CMV-based promoter in a lentiviral vector. FIG. 10 illustrates results. Open Circles: Tumors established from 10% PNP expressing/90% non-expressing tumor cells; PNP activity 9600±1300 units on day 14. Open Triangles: 5% expressing, 95% non-expressing tumor cells; PNP activity 5500±1700 units. Open Squares: Tumors established from 2.5% expressing, 97.5% non-expressing (PNP activity 3600±530 units). Closed symbols depict growth of corresponding (10%, 5%, 2.5%) PNP tumors treated with vehicle (saline control). At least six animals are studied per group. Identically treated animals from each study arm are sacrificed just prior to initiation of MeP-dR therapy (day 14) to measure intratumoral PNP acitivity. […] These experiments test the influence of substantially higher PNP activities on bystander killing in vivo. PNP activity in 300 mg tumors comprised of 100% lentivirus transduced cells is found to be approximately 126,000 PNP units (one unit=1 nmole MeP-dR converted per mg tumor tissue per hour). When the level of E. coli PNP is studied using lentiviral expression, improvements in bystander killing are observed as shown in FIG. 10.
# FIG. 12 depicts a study in which 100% of cells express E. coli PNP using lentivirus. Complete regression and cures of tumors (12 of 12) are obtained with F-araAMP following a 3 day treatment schedule. […] Adjusting the schedule of F-araAMP may also improve bystander killing in vivo (FIG. 16).
# Tumors in which 100% of cells expressed E. coli PNP are treated with a maximally tolerated dose (MTD, 100 mg/kg schedule, open circles) or half the MTD (closed triangles). Six animals are included per treatment group. […] PNP activity in these tumors is 126,000±16,000 units on the day of drug therapy.
# Tumors are established from an inoculum in which 10% of cells expressed E. coli PNP. PNP expression on the day of drug treatment is 14,200±681 PNP units. Anti-tumor efficacy is greater at 100 mg/kg F-araAMP (open circles) than at 50 mg/kg (closed triangles) or 25 mg/kg (open triangles) given over a standard 3 day schedule (q2h×5, q1d×3 days).
# D54 glioma tumors are established with decreasing proportions of PNP expressing cells (and increasing non-expressing (parental) cells). (open symbols: F-araAMP therapy; closed symbols: no prodrug therapy; circles: 2.5%; triangles 5%, and squares 10% PNP transduced cells). F-araAMP was 100 mg/kg q2h×5, q1d×3.
# Tumors comprised of 5% PNP expressing cells and 2 different fludarabine schedules are shown.
# human glioma tumors = experiment: HSV-PNP intratumoral inoculation of human glioma tumors in mice; type: in vivo; conditions: intratumoral MeP-dR 168 mg/kg daily x 3 days with HSV-PNP
# Protocol: Using HSV-PNP, a composition including 17 million pfu of the virus in 50 microliters is administered on day 16 following establishment of human glioma tumors in mice. HSV-PNP by itself slows growth of tumors following intratumoral inoculation, approximately 20 days delay to one tumor doubling.
# [4] = Maximally tolerated dose of prodrug in mice; type: in vivo
# Protocol: For experiments shown in FIG. 7, sixteen mice are implanted subcutaneously with D54 parental, no PNP expression cells, D54/PNP MuLv, approximately 250 PNP units), or D54/lentiPNP, […] PNP units tumor cells as described for efficacy evaluations. When tumors are approximately 200 mg the mice are injected intraperitoneally with 20 mg/kg 3H-F-dAdo. This dose of F-dAdo is the maximally tolerated dose of F-dAdo when given 5 times daily for 3 consecutive days. Four mice from each group are sacrificed 5, 15, 30, and 60 minutes after injection of F-dAdo, and plasma samples were obtained. The amount of F-Ade is determined in each plasma sample using reverse phase HPLC, as described.
# There is no difference in the F-Ade plasma levels in mice bearing tumors with different levels of E. coli PNP activity, which is consistent with the fact that the MTD of F-dAdo is not reduced in mice bearing tumors that express E. coli PNP.
# A similar experiment is conducted with F-araAMP. […] The limit of detection in these experiments with fludarabine is approximately 1 micromolar. As with F-dAdo, the MTD of F-araAMP is not reduced in mice bearing tumors that express E. coli PNP (either from lentivirus or MuLv), or when given in combination with vectors that express E. coli PNP.
# D54 human glioma tumors = experiment: Ad-PNP injection of D54 tumors followed by F-araAMP; type: in vivo
# Protocol: D54 human glioma tumors (appx. 250 mg) are injected with an Ad-PNP (2×10^9 PFU, open circles) or saline (closed circles). PNP activity in tumor extracts taken two days after vector administration is approximately 5000 PNP units.
# [5] = tested on: D54 tumors (no PNP expression); experiment: Control D54 tumors without PNP expression, drug treatment in vivo; conditions: no PNP expression, GFP control transgene, standard 3 day schedule
# [6] = Safety analysis in flank and CNS tumor models with PNP/F-araAMP; type: in vivo
# [7] = F-Ade plasma levels after prodrug injection in tumor-bearing mice; type: in vivo; conditions: 100 mg/kg F-araAMP; limit of detection approximately 1 micromolar
# Protocol: Measurements of generation and clearance of circulating F-Ade are made by HPLC for example. Radiolabeled prodrug is obtained from Moravek Biochemicals and injected into mice by the same route and dosage used in efficacy experiments for comparison. Plasma samples are removed at increasing time intervals after injection of prodrug and analyzed by reverse-phase HPLC for parent compound and base. Identification of prodrug and F-Ade is by HPLC as described above.
# When tumors are approximately 200 mg the mice are injected intraperitoneally with 20 mg/kg 3H-F-dAdo. […] Four mice from each group are sacrificed 5, 15, 30, and 60 minutes after injection of F-dAdo, and plasma samples were obtained. The amount of F-Ade is determined in each plasma sample using reverse phase HPLC, as described.
# A similar experiment is conducted with F-araAMP. […] The limit of detection in these experiments with fludarabine is approximately 1 micromolar.
# Chain of E. coli PNP (P0ABP8 whole entry): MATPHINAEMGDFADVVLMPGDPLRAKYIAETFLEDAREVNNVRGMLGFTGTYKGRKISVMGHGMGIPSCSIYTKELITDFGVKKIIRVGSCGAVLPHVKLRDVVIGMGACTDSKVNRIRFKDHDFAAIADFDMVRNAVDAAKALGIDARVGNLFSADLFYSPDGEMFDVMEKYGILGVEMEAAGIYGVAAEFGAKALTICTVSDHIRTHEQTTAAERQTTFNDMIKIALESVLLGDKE
smiles,measurement,setting,value
Nc1ncnc2c([C@@H]3O[C@H](CO)[C@@H](O)[C@H]3O)[nH]nc12 [Formycin A],Ki,E. coli PNP,5 µM
same,activity against the human enzyme,human enzyme (PNP),inactive
"Cc1ncnc2c1ncn2[C@H]1C[C@H](O)[C@@H](CO)O1 [MeP-dR, 9-(2-deoxy-beta-D-ribofuranosyl]-6-methylpurine]",cell killing in combination with Ad-PNP,HeLa cells,sufficient to eliminate populations of cancer cells
same,circulating half life,[1]; in vivo,~20 min
same,half life in serum,[1]; in vivo,15 to 20 min
same,anti-tumor effect vs non-treatment groups,"[2]; 20% PNP-expressing / 80% parental cells, MeP-dR, p<0.002",significantly different from non-treatment groups
same,tolerability of treatments,"[2]; MeP-dR, 20% PNP (MuLv) and parental tumors",well tolerated without limiting weight loss or lethality
same,antitumor effects vs non-treatment groups,"[3]; MeP-dR, 10%, 5%, 2.5% PNP expressing cells, p<0.05 (2.5%), p<0.005 (5% and 10%)",significantly different from non-treatment groups
same,anti-tumor effect with HSV-PNP,human glioma tumors,improves tumor regressions and arrest of tumor growth
Nc1nc(F)nc2c1ncn2[C@@H]1O[C@H](COP(=O)(O)O)[C@@H](O)[C@@H]1O [F-araAMP],prodrug in plasma,[1]; 4 hours after injection of F-araAMP,very little prodrug in plasma
same,duration of regressions,"[2]; 100% of cells expressed E. coli PNP (MuLv), tumors subsequently escape",~30 days
same,bystander killing in vivo,[2]; F-araAMP following E. coli PNP transduction with MuLv,little or no bystander killing
same,anti-tumor effect vs non-treatment groups,"[3]; 2.5%, 5%, 10% PNP transduced cells, 100 mg/kg q2h x5, q1d x3, p<0.001",significantly different from non-treatment groups
same,anti-tumor effect vs non-treatment group,"[3]; 5% PNP expressing cells, 2 different schedules, p<0.001",significantly different from non-treatment group
same,anti-tumor effect vs non-treatment group,"[3]; 10% PNP cells, 100, 50 or 25 mg/kg q2h x5, q1d x3 days, p<0.001, efficacy greater at 100 mg/kg",significantly different from non-treatment group
same,tolerability during tumor regressions,"[3]; 100% PNP tumors, F-araAMP MTD or half MTD",without excessive weight loss or other undesired sequelae
same,complete regression and cures of tumors,"[3]; 100% of cells express PNP, F-araAMP 3 day schedule, MTD (100 mg/kg) or half the MTD, six animals per group",12 of 12 and cured of their tumors
same,anti-tumor effects at low proportion of PNP cells,[3]; as few as 2.5% of tumor cells express PNP,Anti-tumor effects are observed
same,maximally tolerated dose,"[4]; given 5 times daily for 3 consecutive days, mice",100 mg/kg
same,MTD in mice bearing tumors that express E. coli PNP,[4]; versus mice without PNP tumors,not reduced
same,anti-tumor effect together with Ad-PNP,"D54 human glioma tumors; Ad-PNP 2x10^9 PFU, tumors appx. 250 mg, p<0.002 vs virus alone or no treatment",slowing of tumor growth
same,toxicity in the study,D54 human glioma tumors; Ad-PNP together with F-araAMP,"No limiting weight loss, animal deaths or other toxicities"
same,effect on control D54 tumors,[5],no effect
same,animal longevity,[6],improved animal longevity
same,toxicity as judged by weight loss or lethality,[6],have not indicated significant toxicity
same,F-Ade in plasma of mice bearing tumors expressing E. coli PNP,[7],no F-Ade is detected
